Here are results for 22 compounds from PMC7195332 (Bioorganic & Medicinal Chemistry Letters, 2019).

Molecules are shown by their SMILES.

Test [1] has as its target CypD (30-207 aa, human recombinant) (Homo sapiens, UniProt P30405). In words: Cyclophilin D biochemical FP assay. In kind it is binding. The following applies: for Biochemical CypD FP assay LE: ligand binding efficiency based on biochemical FP IC50s.
The target in test [2] is Recombinant human Cyclophilin D protein (amino acids 44-207, K175I) (Homo sapiens, UniProt P30405, K175I). Kind of test: CypD SPR binding assay. The following applies: for SPR binding CypD LE: ligand binding efficiency based on SPR KDs; for CypD LE (ligand binding efficiency based on the SPR KDs): fragment hits.
Recombinant human Cyclophilin D protein (amino acids 44-207, K175I), sequence (P30405 44-207 K175I): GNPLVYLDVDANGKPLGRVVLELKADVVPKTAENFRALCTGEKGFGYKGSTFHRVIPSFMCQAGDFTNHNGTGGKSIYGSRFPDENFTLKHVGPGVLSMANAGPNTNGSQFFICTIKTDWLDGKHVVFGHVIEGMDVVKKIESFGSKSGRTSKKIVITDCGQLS

CypD (30-207 aa, human recombinant), sequence (P30405 30-207): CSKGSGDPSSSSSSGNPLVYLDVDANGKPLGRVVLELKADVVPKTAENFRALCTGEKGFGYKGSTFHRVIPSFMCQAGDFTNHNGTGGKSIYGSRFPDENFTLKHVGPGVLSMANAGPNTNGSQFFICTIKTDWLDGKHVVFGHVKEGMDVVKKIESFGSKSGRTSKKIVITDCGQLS

As to `CCN1Cc2cc(CCC(=O)NCCC(=O)N3CCC[C@@H]3c3ccccc3SC)ccc2NCCC1=O` [compound 23], the 50% inhibitory concentration (IC50) in test [1] was greater than 100 µM. Further, the “SPR binding CypD LE” value in test [2] is given as 0.12.

On to `O=C(NCc1ccc2c(c1)[C@@H]1C[C@H](N2)[C@H](O)CO1)C(=O)N1CCCC1` [compound 30], for which the “Biochemical CypD FP assay LE” value in test [1] is on record as 0.16. For the same compound, the “SPR binding CypD LE” value in test [2] worked out at 0.19.

As to `CCn1nnc(NC(=O)c2ccccc2)n1` [compound 6], the “CypD LE (ligand binding efficiency based on the SPR KDs)” value in test [2] is 0.21.

`O[C@@H]1CO[C@@H]2C[C@H]1Nc1ccc(F)cc12` [compound 3]: in test [2], the “CypD LE (ligand binding efficiency based on the SPR KDs)” value is reported as 0.2.

Regarding `CSc1ccccc1[C@H]1CCCN1C(=O)C(=O)NCc1ccc2c(c1)[C@H]1C[C@@H](N2)[C@H](O)CO1` [compound 31], the IC50 in test [1] was greater than 100 µM. For the same compound, the “SPR binding CypD LE” value in test [2] is listed as 0.16.

`CCN1Cc2cc3c(cc2NCCC1=O)OCO3` [compound 4]: the “CypD LE (ligand binding efficiency based on the SPR KDs)” value in test [2] is reported as 0.16.

Regarding `O=C(CN1C(=O)C2C3CCC(C3)C2C1=O)NCc1ccc2c(c1)CCCN2` (stereo not drawn) [compound 38], the “potency improvement compared with 36” value in test [1] was found to be 2 fold.

As to `CCN1Cc2cc(NC(=O)CN3C(=O)C4C(C3=O)[C@H]3CC[C@@H]4C3)ccc2NCCC1=O` (stereo partly drawn) [compound 35], the concentration for half-maximal inhibition (IC50) in test [1] was greater than 1000 µM.

Consider `CSc1ccccc1[C@H]1CCCN1C(=O)CNC(=O)CCc1ccc2c(c1)[C@@H]1C[C@H](N2)[C@H](O)CO1` [compound 19], for which the IC50 in test [1] amounted to 54 µM.

Take `O=C(NCc1ccc2c(c1)[C@H]1C[C@@H](N2)[C@H](O)CO1)C(=O)N1CCCC1` [compound 29]: the IC50 in test [1] was greater than 100 µM. The Kd in test [2] was greater than 1500 µM.

In the case of `CCN1Cc2cc(CNC(=O)NCC(=O)N3CCC[C@@H]3c3ccccc3SC)ccc2NCCC1=O` [compound 20], in test [1], the IC50 was 0.19 µM. Moreover, the “SPR binding CypD LE” value in test [2] came to 0.25.

As to `CSc1ccccc1[C@H]1CCCN1C(=O)CNC(=O)NCc1ccc(N)cc1` [compound 2, reference compound], in test [1], the half-inhibitory concentration (IC50) was 0.75 µM. Besides, the Kd in test [2] came to 0.23 µM.

On to `O=C(CN1C(=O)[C@@H]2[C@H]3CC[C@H](C3)[C@@H]2C1=O)NCc1ccc2c(c1)[C@H]1C[C@@H](N2)[C@H](O)CO1` [compound 40, 2-(exo-3,5-Dioxo-4-aza-tricyclo[5.2.1.02,6]dec-4-yl)-N-((1R,9R,10S)-10-hydroxy-12-oxa-8-aza-tricyclo[7.3.1.02,7]trideca-2(7),3,5-trien-4-ylmethyl)-acetamide], for which, in test [1], the IC50 was found to be 0.735 µM and the “Biochemical CypD FP assay LE” value turned out to be 0.27. The “SPR binding CypD LE” value in test [2] was 0.25.

With `CSc1ccccc1[C@@H]1CCCN1C(=O)C(=O)NCc1ccc2c(c1)[C@H]1C[C@@H](N2)[C@H](O)CO1` [compound 32], in test [1], the IC50 is greater than 30 µM.

With `CCN1Cc2cc(CNC(=O)CN3C(=O)[C@@H]4[C@H]5CC[C@H](C5)[C@@H]4C3=O)ccc2NCCC1=O` [compound 34], in test [1], the 50% inhibitory concentration (IC50) is 80 µM and the “Biochemical CypD FP assay LE” value amounted to 0.18. Further, the Kd in test [2] is 51 µM.

As for `CCN1Cc2cc(CCC(=O)NCC(=O)N3CCC[C@@H]3c3ccccc3SC)ccc2NCCC1=O` [compound 22], in test [1], the IC50 is 4.1 µM and the “Biochemical CypD FP assay LE” value amounted to 0.21. Besides, in test [2], the “SPR binding CypD LE” value was 0.21.

Regarding `Nc1ccc(CCNC(=O)CN2C(=O)C3C4CCC(C4)C3C2=O)cc1` (stereo not drawn) [compound 37], in test [1], the IC50 is 490 µM and the “Biochemical CypD FP assay LE” value stood at 0.18.

`O=C(CN1C(=O)[C@@H]2[C@@H]3CC[C@@H](C3)[C@@H]2C1=O)NCc1ccc2c(c1)[C@H]1C[C@@H](N2)[C@H](O)CO1` [compound 39]: in test [1], the IC50 stood at 1.7 µM and the “Biochemical CypD FP assay LE” value was found to be 0.26. In test [2], the “SPR binding CypD LE” value was determined as 0.26.

Take `O=C(NCc1ccccn1)C(=O)NC1CCCC1` [compound 8]: in test [2], the “CypD LE (ligand binding efficiency based on the SPR KDs)” value is given as 0.22.

Turning to `CSc1ccccc1[C@H]1CCCN1C(=O)CN(C)C(=O)NCc1ccc2c(c1)[C@H]1C[C@@H](N2)[C@H](O)CO1` [compound 18], the IC50 in test [1] came out at 10 µM.

With `O=C(NCc1ccc2c(c1)[C@@H]1C[C@H](N2)[C@H](O)CO1)C(=O)NC1CCCC1` [compound 30], the half-maximal inhibitory concentration (IC50) in test [1] was determined as 870 µM. Moreover, the dissociation constant (Kd) in test [2] was 217 µM.

With `CCN1Cc2cc(NC(=O)NCC(=O)N3CCC[C@@H]3c3ccccc3SC)ccc2NCCC1=O` [compound 21], in test [1], the IC50 is greater than 100 µM. In addition, the “SPR binding CypD LE” value in test [2] worked out at 0.13.
